# Experimental data taken from patent US5043332A, “Novel 11β-substituted -19-nor-steriods” (priority 1981, dated 1991).
# Tests used:
# [1] = target: T1, Progestogen receptor of the uterus of rabbits (Oryctolagus cuniculus, UniProt P06186); assay: Progestogen receptor binding (displacement of tritiated product R); set-up: species or system rabbit; details: conclusion
# T1 construct: The uterus was removed, weighed and homogenized at 0° C; from tissue; host or cells: rabbit uterus, 105,000 g supernatant (estradiol-primed immature rabbits)
# T1 sequence (P06186 1-930): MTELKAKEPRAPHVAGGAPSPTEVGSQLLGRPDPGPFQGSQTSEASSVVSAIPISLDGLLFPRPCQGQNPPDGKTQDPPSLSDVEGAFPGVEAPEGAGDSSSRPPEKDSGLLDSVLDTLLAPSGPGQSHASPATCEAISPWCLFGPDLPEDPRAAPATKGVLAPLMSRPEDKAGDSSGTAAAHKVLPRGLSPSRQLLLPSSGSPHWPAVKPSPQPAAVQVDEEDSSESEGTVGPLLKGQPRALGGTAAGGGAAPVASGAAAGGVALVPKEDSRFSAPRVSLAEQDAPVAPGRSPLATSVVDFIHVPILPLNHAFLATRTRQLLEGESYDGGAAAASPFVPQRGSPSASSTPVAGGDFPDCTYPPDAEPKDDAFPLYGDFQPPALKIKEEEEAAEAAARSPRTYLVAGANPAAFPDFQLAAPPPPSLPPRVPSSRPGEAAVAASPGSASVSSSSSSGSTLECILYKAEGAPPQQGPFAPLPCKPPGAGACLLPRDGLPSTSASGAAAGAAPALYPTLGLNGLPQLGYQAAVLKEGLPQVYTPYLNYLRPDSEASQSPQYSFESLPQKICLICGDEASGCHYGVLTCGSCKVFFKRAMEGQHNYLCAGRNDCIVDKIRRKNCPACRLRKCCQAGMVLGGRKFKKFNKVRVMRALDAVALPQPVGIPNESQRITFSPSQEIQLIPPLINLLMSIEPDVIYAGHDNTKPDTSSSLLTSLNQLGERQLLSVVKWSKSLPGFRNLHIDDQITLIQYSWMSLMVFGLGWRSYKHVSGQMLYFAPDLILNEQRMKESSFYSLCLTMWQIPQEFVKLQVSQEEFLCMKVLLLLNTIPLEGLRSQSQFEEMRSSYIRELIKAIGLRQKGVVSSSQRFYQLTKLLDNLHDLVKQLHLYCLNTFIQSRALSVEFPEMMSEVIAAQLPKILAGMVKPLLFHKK
# Method: C. Progestogen receptor of the uterus of rabbits
# Immature rabbits weighing about 1 kg received a cutaneous application of 25 μg of estradiol and the animals were killed 5 days later. The uterus was removed, weighed and homogenized at 0° C. with a polytetrafluoroethylene-glass Potter, in a buffered TS solution [Tris 10. mM, 0.25M of saccharose, HCl-pH of 7.4] with 1 g of tissue per 50 ml of TS. […] The concentration of tied tritiated R (B) was then measured for each incubate by the technique of adsoprtion on carbon-dextran.
# (§1) The calculation of the relative affinity of […] (ARL) was identical for all of the above receptor tests. One traced the following two curves: the percentage of tied tritiated hormone B/T as a function of the logarithm of the cold hormone concentration and B/T as a function of the logarithm of the concentration of the cold test product. One determined the line of the equation. [formula]
# (§2) The intersection of the I50 line and the curves permits one to determine the concentrations of the cold hormone of the reference (CH) and the cold test compound (CX) which inhibit by 50% the tieing of tritiated hormone with the receptor. The relative affinity of tieing (ARL) of the test product was determined by the equation: [formula]
# [2] = test system: thymocytes of surrenalectomized rats; assay: Antiglucocorticoidal activity, incorporation of tritiated uridine in thymocytes; assay type: cell-based; details: for opposition to the effect of dexamethasone on tritiated uridine incorporation (in words): with 5×10^-8 M dexamethasone
# Method: III. Antiglucocorticoidal Activity
# The test used was that of Dausse et al [Molecular Pharmacology, Vol. 13 (1977), p. 948-955] entitled "The relationship between glucocorticoid structure and effects upon thymocytes" for […] thymocytes. The thymocytes of surrenalectomized rats were incubated at 37° C. for 3 hours in a nutritive medium containing 5×10^-8 M of dexamethasone in the presence or absence of the test compound at different concentrations. Tritiated uridine was added and incubation was continued for one hour. The incubates were cooled and treated with a 5% trifluoroacetic acid solution and the mixture was filtered with Whatman GF/A paper. The filter was washed 3 times with a 5% trifluoroacetic acid solution and retained radioactivity on the filter was determined.
# [3] = target: T2, Androgen receptor of prostate of rats (Rattus norvegicus, UniProt P15207); assay: Androgen receptor binding (displacement of tritiated product P); details: conclusion
# T2 construct: The prostates were removed, weighed and homogenized at 0° C; from tissue; host or cells: rat prostate, 105,000 g supernatant (castrated male Sprague-Dawley rats)
# T2 sequence (P15207 1-902): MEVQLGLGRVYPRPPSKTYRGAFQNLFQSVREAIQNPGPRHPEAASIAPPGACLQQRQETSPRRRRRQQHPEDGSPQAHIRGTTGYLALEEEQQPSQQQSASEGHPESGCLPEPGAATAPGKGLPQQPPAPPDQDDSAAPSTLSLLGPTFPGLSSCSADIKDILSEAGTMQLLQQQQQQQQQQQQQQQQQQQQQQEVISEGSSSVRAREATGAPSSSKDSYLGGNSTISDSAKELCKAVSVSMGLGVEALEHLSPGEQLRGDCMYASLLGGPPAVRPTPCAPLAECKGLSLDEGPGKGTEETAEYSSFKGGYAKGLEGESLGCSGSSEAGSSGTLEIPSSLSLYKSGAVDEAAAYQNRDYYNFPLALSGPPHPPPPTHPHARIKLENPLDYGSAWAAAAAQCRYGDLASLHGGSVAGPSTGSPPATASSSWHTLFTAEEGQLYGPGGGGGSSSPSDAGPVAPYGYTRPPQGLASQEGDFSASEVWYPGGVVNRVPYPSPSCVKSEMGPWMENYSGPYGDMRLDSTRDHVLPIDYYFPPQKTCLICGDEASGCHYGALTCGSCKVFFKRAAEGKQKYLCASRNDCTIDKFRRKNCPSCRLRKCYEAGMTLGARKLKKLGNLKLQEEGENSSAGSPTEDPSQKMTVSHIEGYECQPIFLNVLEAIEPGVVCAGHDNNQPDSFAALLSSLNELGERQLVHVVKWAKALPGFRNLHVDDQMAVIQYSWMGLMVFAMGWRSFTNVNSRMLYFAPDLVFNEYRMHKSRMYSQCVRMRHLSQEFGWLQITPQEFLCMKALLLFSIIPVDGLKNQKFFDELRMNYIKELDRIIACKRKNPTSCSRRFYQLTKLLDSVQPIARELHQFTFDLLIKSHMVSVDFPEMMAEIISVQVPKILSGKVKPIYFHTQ
# Method: B. Androgen receptor of prostate of rats
# Male Sprague-Dawley EPOS rats weighing of 160 to 200 g were castrated and 24 hours later, the animals were killed. The prostates were removed, weighed and homogenized at 0° C. with a polytetrafluoroethylene-glass Potter with a buffered TS solution (Tris, 10 mM, 0.25M Saccharose, HCl-pH of 7.4) using 1 g of tissue per 5 ml of TS. The homogenate was then ultracentrifuged at 105,000 g for 60 […] (T) of product P or 17α-methyl-Δ^4,9,11 -estratriene-17β-ol-3-one in the presence of increasing concentration (0-1,000×10^-9 M) of either cold P, cold testosterone or the test compound. The concentration of tied tritiated (B) was measured for each incubate by the technique of adsorption on carbon-dextran.
# as §1, §2
SMILES,affinity for progestogen receptors (in words) [1],opposition to the effect of dexamethasone on tritiated uridine incorporation (in words) [2],affinity for androgen receptors (in words) [3],"inhibition at 1 µM ([2]; Rattus norvegicus, Thymocyte, second table, 5 × 10^-8 M dexamethasone + test product 10^-6 M, read-out: % of inhibition of effect of Dexamethasone) [%]","inhibition at 0.1 µM ([2]; Rattus norvegicus, Thymocyte, second table, 5 × 10^-8 M dexamethasone + test product 10^-7 M, read-out: % of inhibition of effect of Dexamethasone) [%]","inhibition at 0.01 µM ([2]; Rattus norvegicus, Thymocyte, second table, 5 × 10^-8 M dexamethasone + test product 10^-8 M, read-out: % of inhibition of effect of Dexamethasone) [%]"
"CC#C[C@]1(O)CC[C@H]2[C@@H]3CCc4cc(O)ccc4[C@H]3[C@@H](c3ccc(N(C)C)cc3)C[C@@]21C [Example 2, 11β-(4-dimethylaminophenyl)-17α-(prop-1-ynyl)-Δ^1,3,5(10) -estratriene-3,17β-diol]",very remarkable affinity,opposed this effect,slightly moderate affinity,,,
"C#CC[C@]1(O)CC[C@H]2[C@@H]3CCC4=CC(=O)CCC4=C3[C@@H](c3ccc(N(C)C)cc3)C[C@@]21C [Example 31, 11β-[4-(N,N-dimethylamino)-phenyl]-17α-(prop-2-ynyl)-Δ^4,9-estradiene-17β-ol-3-one]",very remarkable affinity,opposed this effect,slightly moderate affinity,99,60,28
